Measured values from the NIST ThermoML archive (doi:10.1016/j.jct.2007.05.017).

Assay: xn = mol fraction of the nth substance listed
Settings: Liquid, Vibrating tube method

COC(=O)OC [dimethyl carbonate] + O=C=O
mass density [kg/m3]
Settings	x2 = 0.2765	x2 = 0.4101	x2 = 0.4429	x2 = 0.5128	x2 = 0.5573	x2 = 0.6179	x2 = 0.6791	x2 = 0.6922	x2 = 0.7885	x2 = 0.7974
273 K	–	475.4	–	448.2	–	373.6	–	331.4	260.1	–
283 K	659.5	–	569.3	–	465.6	–	358.1	–	–	311.1
